# Test system: rat lens epithelial cells
# Test: Inhibitory activity on lens epithelial cell proliferation
# Assay type: cell-based
# Conditions: rat lens epithelial cells cultured 4 days in DMEM with 10% FBS and various concentrations of Tranilast; viable cells counted by hemocytometer; FIG. 1
# Method: Inhibitory Activity on Lens Epithelial Cell Proliferation
# (1) Culture of Rat Lens Epithelial Cells
# Rat crystalline lens was harvested and cut into narrow strips. The strips were adhered to a culture plate and subcultured in Dulbecco's modified Eagle's Medium (DMEM) containing 10% fetal calf serum (FBS) at 37° C. in an atmosphere of 5% CO2 in air for 4 days. On day 4 (at the point that lens epithelial cells had migrated and profilated from crystalline lens tissues), the medium was aspirated and cells were gently washed with phosphate-buffered saline (PBS(−)). Then, the PBS(−) was aspirated, an aliquot of 0.25% trypsin solution containing 0.02% EDTA was added to the culture plate, and the morphology of the cells was observed under phase-contrast microscopy. When cells were going to be round, an equal value of DMEM containing 10% FBS was added to the trypsin solution to stop the action of trypsin. […]
# Cell suspension (2×10^4 cells/0.1 ml) and DMEM medium (1.9 ml) containing various concentration of Tranilast and 10% FBS were added to a culture plate (60 mm), and cultured at 37° C. in an atmosphere of 5% CO2 in air. […] After harvesting cells from the plate by pipetting using a pasture pipette, the number of viable cells was counted using a hemocytometer. […]
# Mean and standard variation values of each group were calculated. […]
smiles,measurement,value
"COc1ccc(C=CC(=O)Nc2ccccc2C(=O)O)cc1OC [Tranilast, N-(3,4-dimethoxycinnamoyl)anthranilic acid]",proliferation of lens epithelial cells (number of viable cells),significantly suppressed the proliferation of lens epithelial cells in a concentration-dependent manner
